The subject of one data set is host Vero cell. Briefly: Vero host cell toxicity in the intracellular T. cruzi assay. The following applies: for EC50 / IC50: Chlorocebus sabaeus; for EC50: Vero; for IC50: host Vero cell, read-out: Vero pIC50 (converted). On the set-up: key to Max Effect (Vero): % inhibition; 0% = DMSO control, 100% = 16 μM nifurtimox control. The data set is classed as cell-based. In a few lines:
(§1)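 Silvio X10/7 trypomastigotes infected Vero cells overnight at MOI10; washed infected cells were exposed to compounds 96 h at 37°C in MEM/1% FCS. Hoechst-stained imaging scored percent infected cells (potency) and host-cell number (Vero toxicity), normalised to 16 μM nifurtimox and DMSO controls; four-parameter fit.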

A short description of data set [1]: Mouse liver microsomal intrinsic clearance. Type of data set: in vitro ADME. (Microsomes from liver hold many membrane-bound enzymes, among them those of drug oxidation.)
A further data set relates to intracellular T. cruzi. Briefly: T. cruzi washout assay. Type of data set: cell-based, Trypanosoma cruzi. The following applies: 25 x IC50 for 16 days, infected Vero cells. How it is done:
For any hits identified and successfully triaged, the initial focus of hit-expansion is to identify compounds with a suitable profile to run in a washout assay.,[21] In this assay, intracellular T. cruzi are treated with high doses of compounds for an extended duration (25x IC50 for 8 – 16 days), followed by compound washout and assessment of parasite relapse over 60 days to assess ability to clear all parasites, including any persisters. […] Compound series with a profile equal to or better than benznidazole can then be progressed to an in vivo efficacy model of chronic Chagas disease with a high probability of success.
At this stage, we were keen to examine our options for progression into the T. cruzi washout assay, [12],[21] and decided to move forward with 2, 14 and 16 to give coverage across both chemotypes. […] After this dosing period, the compound was washed off the infected cells, and the host cell monolayer was monitored for egressed parasites. The first day egressed parasites were detected post washout was noted down as the relapse day. In this assay, posaconazole, which is known to be ineffective in the clinic, relapsed after 10 days and benznidazole, used as the bench-mark clinical compound, relapsed after 31 / 35 days (2 replicates). We were therefore looking for compounds that relapsed at an equivalent time to benznidazole, or later, to be considered worth pursuing further.
Intracellular T. cruzi washout assays were carried out with the Silvio X10/7 strain using the protocol previously described. ^1

A short description of data set [2]: ChromLogD pH7.4 (chromatographic hydrophobicity index), PFI, LLE. The conditions noted are these: for PFI: ChromLogDpH7.4 + no. aromatic rings; for chromatographic logD: pH 7.4. From the text: [23] Alongside PFI, LLE (ligand lipophilic efficiency, T. cruzi pIC50 - ChromLogDpH7.4) was also monitored to identify changes where the impact on potency was not driven by increasing lipophilicity.

Data set [3] deals with intracellular T. cruzi amastigotes. Briefly: T. cruzi intracellular potency assay (high content imaging). The data set is classed as cell-based, Trypanosoma cruzi. On the set-up: key to Max Effect (T. cruzi): % inhibition; 0% = DMSO control, 100% = 16 μM nifurtimox control. The conditions noted are these: for Emax: read-out: Max Effect (T. cruzi); for IC50: intracellular amastigotes in Vero cells, 96 h, mean of N ≥ 3, read-out: T. cruzi pIC50 (converted). In a few lines:
as §1

A short description of data set [4]: Human liver microsomal intrinsic clearance. The data set is classed as in vitro ADME.
Data set [5] is described as follows: Kinetic aqueous solubility by CAD. The data set is classed as physicochemical. The conditions noted are these: kinetic from dmso stock.
The next data set has as its target Tc-CYP51 (Trypanosoma cruzi, UniProt Q7Z1V1). The experiment in a line: T. cruzi sterol 14α-demethylase (CYP51) enzyme assay. Type of data set: biochemical. How it is done:
T. cruzi sterol 14α-demethylase (CYP51) enzyme assay
Potency against T. cruzi CYP51 was determined using a previously described fluorescence assay. Average potency for compound 1 was determined with three experimental replicates. Potencies in Fig.3 are from single experimental replicates. ^5

For the next data set, the system named is T. cruzi trypomastigotes. Set-up: method as in PMID 30001347. The following applies: cited from earlier work.
The subject of another data set is T. cruzi. On the set-up: method as in PMID 24827034, PMID 29352704. The following applies: clinical trials; cited from earlier work.
Setting [6] is: Trypanosoma cruzi, individual replicate.

Values after ≈ are worked out from the molar mass of the structure shown. Values joined by “and” are separate entries in the source; they are usually repeats but may differ in a detail not shown here. Identical values can stand only once. Like-named read-outs stand apart in the source and are kept apart here.

Sequence of Tc-CYP51 (Q7Z1V1 whole entry): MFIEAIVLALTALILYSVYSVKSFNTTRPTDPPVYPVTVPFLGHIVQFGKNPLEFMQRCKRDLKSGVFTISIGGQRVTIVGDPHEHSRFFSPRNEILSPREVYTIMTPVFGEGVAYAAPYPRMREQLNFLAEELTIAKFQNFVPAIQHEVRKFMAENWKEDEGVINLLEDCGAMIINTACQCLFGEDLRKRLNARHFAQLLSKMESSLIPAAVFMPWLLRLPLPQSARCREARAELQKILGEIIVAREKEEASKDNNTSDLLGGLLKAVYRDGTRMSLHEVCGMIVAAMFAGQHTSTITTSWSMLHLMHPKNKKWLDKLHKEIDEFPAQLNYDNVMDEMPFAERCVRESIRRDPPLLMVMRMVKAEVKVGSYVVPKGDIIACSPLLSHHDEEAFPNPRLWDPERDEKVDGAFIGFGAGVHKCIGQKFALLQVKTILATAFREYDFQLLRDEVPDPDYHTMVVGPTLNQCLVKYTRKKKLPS

`CC(C)N(C(=O)CN1C(=O)C(N)C(=O)N(c2ccccc2)c2ccccc21)c1ccccc1` (racemic) [Compound 14, 2-(3-amino-2,4-dioxo-5-phenyl-2,3,4,5-tetrahydro-1H-benzo[b][1,4]diazepin-1-yl)-N-isopropyl-N-phenylacetamide]: in the data set with host Vero cell (individual replicate), the EC50 is more than 50.1 µM; the “Max Effect (Vero)” value was -6.63 and 8 and -0.0425 and 13 and 41 and 1.19 and 11; the “pEC50 (Vero)” value was less than 4.3. Moreover, the IC50 with host Vero cell is more than 50.1 µM. In addition, the “MLM CLi” value in data set [1] (mouse, microsomes) turned out to be 3.4 mL/min/g. In addition, the “relapse day post washout” value in the data set on intracellular T. cruzi worked out at 6 days. In data set [2], the PFI stood at 8.0 and the chromatographic logD stood at 5. In addition, the Emax in data set [3] (setting [6]) is 89%. For the same compound, in [3] (Trypanosoma cruzi), the IC50 was 0.2 µM. In data set [3] (individual replicate), the “Hill slope (T. cruzi)” value was 4.0 and 12.9 and 3.7 and 29.0 and 4.4 and 2.2 and 5.2; the “Max Effect (T. cruzi)” value was 87 and 86 and 88 and 93 and 92 and 82; the “pEC50 (T. cruzi)” value was 6.6 and 6.8 and 7.0 and 6.7. Besides, the “HLM CLi” value in data set [4] (human, microsomes) is less than 0.4 mL/min/g. The solubility in [5] was more than 500 µM.

On to `COc1ccc(NC(=O)NC2C(=O)Nc3ccccc3N(c3ccccc3)C2=O)cc1` (stereo not shown) [Compound 2, 1-(2,4-dioxo-1-phenyl-2,3,4,5-tetrahydro-1H-benzo[b][1,4]diazepin-3-yl)-3-(4-methoxyphenyl)urea], for which, in the data set with host Vero cell (individual replicate), the EC50 is more than 50.1 µM; the “Max Effect (Vero)” value was 26 and 22 and 25 and -6 and 27 and 29 and 1.42 and 36. In the data set with host Vero cell, the IC50 is more than 50.1 µM. In addition, the “MLM CLi” value in [1] (mouse liver microsomes) was less than 0.5 mL/min/g. For the same compound, the “relapse day post washout” value in the data set on intracellular T. cruzi came out at 10 days. For the same compound, the “Tc CYP51 Hill” value on Tc-CYP51 (individual replicate) came out at 1.1. Further, on Tc-CYP51 (individual replicate, read-out: Tc CYP51 Max Effect), the Emax is 95%. On Tc-CYP51 (individual replicate, read-out: Tc CYP51 pIC50 (converted)), the IC50 is 7.94 µM. In addition, at Tc-CYP51 (urea series), the “fold more potent against the parasites than against Tc-CYP51” value amounted to 10 fold. In [2], the PFI was 7.0 and the chromatographic logD was found to be 4. Besides, the Emax in data set [3] (setting [6]) amounted to 89%. Moreover, the IC50 in [3] (Trypanosoma cruzi) was 1.26 µM. In data set [3] (individual replicate), the “Hill slope (T. cruzi)” value is 2.1 and 3.4 and 3.0 and 9.3 and 1.5 and 2.5 and 0.659; the “Max Effect (T. cruzi)” value was 99 and 83 and 84 and 94 and 93 and 92 and 88; the “pEC50 (T. cruzi)” value is 5.8 and 5.7 and 6.3 and 5.9. Also, the “HLM CLi” value in [4] (human liver microsomes) was less than 0.4 mL/min/g. For the same compound, the solubility in data set [5] (kinetic, CAD, read-out: Aqueous solubility) stood at 64 µM (≈ 26.7 µg/mL).

On to `COc1ccc(CN2C(=O)C(N)C(=O)N(c3ccc(OC)cc3)c3ccccc32)cc1` (stereo not shown) [Compound 16, 3-amino-1-(4-methoxybenzyl)-5-(4-methoxyphenyl)-1,5-dihydro-2H-benzo[b][1,4]diazepine-2,4(3H)-dione], for which, in the data set with host Vero cell (individual replicate), the EC50 is more than 50.1 µM; the “Max Effect (Vero)” value was 21 and 44 and 30 and 5.55. Moreover, in the data set on host Vero cell, the IC50 is more than 50.1 µM. In addition, the “MLM CLi” value in data set [1] (mouse, microsomes) came out at 7.6 mL/min/g. For the same compound, the “relapse day post washout” value with intracellular T. cruzi is recorded as 6 days. In addition, in [2], the PFI was 7.2 and the chromatographic logD turned out to be 4.2. Also, the Emax in data set [3] (setting [6]) was 86%. In addition, the EC50 in data set [3] (Trypanosoma cruzi, individual replicate, read-out: pEC50 (T. cruzi) (converted)) is 0.316 µM. In data set [3] (Trypanosoma cruzi), the IC50 was 0.316 µM. In addition, in data set [3] (individual replicate), the “Hill slope (T. cruzi)” value was 3.7 and 4.5 and 5.7 and 13.7; the “Max Effect (T. cruzi)” value was 81 and 84 and 91; the “pEC50 (T. cruzi)” value amounted to 6.6. For the same compound, the “HLM CLi” value in data set [4] (human, microsomes) was less than 0.4 mL/min/g. Moreover, the solubility in [5] is more than 270 µM.

Regarding `O=C(Cn1ccnc1[N+](=O)[O-])NCc1ccccc1` [benznidazole, reference compound], the “relapse day post washout” value with intracellular T. cruzi was 31 days and 35 days. Further, the activity against trypomastigotes result in the data set with T. cruzi trypomastigotes is on record as “good activity”.

For the compound `C[C@@H](c1nc(-c2ccc(C#N)cc2)cs1)[C@@](Cn1cncn1)(OCOP(=O)(O)O)c1ccc(F)cc1F` [fosravuconazole], the “treatment failures in patients” value with T. cruzi is 70 – 90%.

On to `CC1CS(=O)(=O)CCN1/N=C/c1ccc([N+](=O)[O-])o1` (stereo not shown) [nifurtimox], for which, in the data set with T. cruzi trypomastigotes, the activity against trypomastigotes result is recorded as “good activity”.

As for `CC[C@@H]([C@H](C)O)n1ncn(-c2ccc(N3CCN(c4ccc(OC[C@@H]5CO[C@@](Cn6cncn6)(c6ccc(F)cc6F)C5)cc4)CC3)cc2)c1=O` [posaconazole], the “treatment failures in patients” value in the data set with T. cruzi is on record as 70 – 90%. For the same compound, the “relapse day post washout” value with intracellular T. cruzi stood at 10 days. In the data set on T. cruzi trypomastigotes, the activity against trypomastigotes entry is listed as “only very weakly active”.

Broadly, the chromatographic logD is a lipophilicity value derived from retention on a column. One may read the solubility as the concentration that dissolves in the medium under given conditions.

The values above are taken from publication PMC12208134, “Structure-activity relationships of 1,5-dihydro-2H-benzo[b][1,4]diazepine-2,4(3H)-diones as inhibitors of Trypanosoma cruzi” (RSC medicinal chemistry, 2025).
